Experimental data from publication PMC6108829 (Environmental Health Perspectives, 2018).
“And” between values parts separate entries of the source, which are not always exact repeats. Equal entries are not always repeated. Where two headings read alike, the source gives them in different places. Marks after values point to notes of the source that are not given here.

Tests used:
[1] = determined experimentally, ref Doerge et al. (2011), cited from earlier work
[2] = PBPK model parametrization and calibration with biomonitoring data; parameters: species or system human; details: basic BPA model
Protocol: It consists of the compartments titled serum, liver, fat, skin, gonads, brain, “richly perfused tissue,” “slowly perfused tissue”, and two single-compartment submodules for BPA-g and BPA-s in serum (see Figure 2). In the compartment titled “richly perfused tissue,” compartments were lumped with a perfusion greater than 0.1mL/min/g tissue (heart, kidneys, small and large intestine, pancreas, spleen, and stomach), and in the compartment titled “slowly perfused tissue,” compartments were lumped with a perfusion smaller than 0.1mL/min/g tissue (muscle and skeleton) ([Edginton et al. 2006]; [ICRP 2002], see Table S1 for the aggregated parameters). […] Fixing the scaling error caused the aforementioned discrepancy, and we had to review and readjust the model parameters to the biomonitoring data.
In a first step to readjust and further develop the PBPK model, we collected all studies that investigated the metabolism parameters used in the model and gathered data from different studies that measured the same metabolism routes (see Table S2). […] For this purpose, we calculated the mean relative deviation (MRD) and average fold error (AFE) to assess precision and bias of the model predictions using Equations 1 and 2 ([Sheiner and Beal 1981]), as done previously ([Ito and Houston 2005]; [Vogt 2014]; [Yang et al. 2015]). […]

[3] = cited from earlier work
liver [4] = details: cited from earlier work
[5] = cited from earlier work; remark: listed apart in the source
[6] = ref Csanády et al. 2002; cited from earlier work
[7] = test system: human breast-cancer cell lines; parameters: method as in Walsh et al. (2005); details: ref Walsh et al. (2005), read-out: EC50 for an increase of calcium ion concentration; cited from earlier work
[8] = in vivo; cited from earlier work
[9] = cited from earlier work; remark: listed apart in the source
liver [10] = details: ref Kurebayashi et al. (2010), cited from earlier work
[11] = Margin of exposure (MOE = EC50/Cmax) back-of-the-envelope calculation; parameters: species or system human
small intestine = details: cited from earlier work
[12] = ref Schönfelder et al. (2002); cited from earlier work
[13] = basic PBPK model, ref Yang et al. (2015)
[14] = EC50 (Kitamura et al. 2005)/highest Cmax of basic PBPK model (Table 9)

## CC(C)(c1ccc(O)cc1)c1ccc(O)cc1 [BPA, bisphenol A]
[1]; value for brain used
  PTS richly perfused tissue/serum: 2.8
[1]; value for muscle used
  PTS slowly perfused tissue/serum: 2.7
[2]
  vmax of hepatic sulfation, times lower than that of hepatic glucuronidation: about 60 times
[3]; dissolved in ethanol, used for PCPs, ref Biedermann et al. 2010
  dermal absorption fraction: 60%
[3]; range over several studies, different study designs and solvents
  reported dermal absorption: 9.3% to 60
Liver [4]; arithmetic mean of female and male kinetics, ref Elsby et al. (2001)
  Hepatic glucuronidation vmax ±SD: 333 ± 21 nmol/h/mg microsomal protein
Liver [4]; arithmetic mean of female and male kinetics, ref Kuester and Sipes (2007)
  Hepatic glucuronidation vmax ±SD: 85.2 ± 31.4 nmol/h/mg microsomal protein
Liver [4]; arithmetic mean of female and male kinetics, ref Mazur et al. (2010)
  Hepatic glucuronidation vmax ±SD: 190 ± 16.9 nmol/h/mg microsomal protein
Liver [4]; range of published values, ref Coughlin et al. (2012), Kurebayashi et al. (2010), Trdan Lušin et al. (2012), Elsby et al. (2001), Kuester and Sipes (2007), Mazur et al. (2010), Street et al. (2017)
  Hepatic glucuronidation vmax range: 1,270–16,300^c nmol/h/g liver
Liver [4]; read-out: Hepatic glucuronidation Km ±SD, arithmetic mean of female and male kinetics, ref Elsby et al. (2001)
  Km: 71.9 µM
Liver [4]; read-out: Hepatic glucuronidation Km ±SD, arithmetic mean of female and male kinetics, ref Kuester and Sipes (2007)
  Km: 8.5 µM
Liver [4]; read-out: Hepatic glucuronidation Km ±SD, arithmetic mean of female and male kinetics, ref Mazur et al. (2010)
  Km: 4.25 µM
Liver [4]; read-out: Hepatic glucuronidation Km ±SD, ref Street et al. (2017)
  Km: 23 µM
Liver [4]; read-out: Hepatic glucuronidation Km ±SD, ref Trdan Lušin et al. (2012)
  Km: 8.9 µM
Liver [4]; read-out: Hepatic glucuronidation Km, n=1, ref Kurebayashi et al. (2010)
  Km: 5.3 µM
Liver [4]; read-out: Hepatic glucuronidation Km, used in basic model, ref Coughlin et al. (2012)
  Km: 45.8 µM
Liver [4]; ref Coughlin et al. (2012)
  Hepatic glucuronidation vmax - used in basic model: 9,040^a nmol/h/g liver
  Hepatic glucuronidation vmax ±SD: 283 ± 18 nmol/h/mg microsomal protein
Liver [4]; ref Kurebayashi et al. (2010)
  Hepatic glucuronidation vmax: 39.8 nmol/h/mg microsomal protein
Liver [4]; ref Street et al. (2017)
  Hepatic glucuronidation vmax ±SD: 270 ± 60 nmol/h/mg microsomal protein
Liver [4]; ref Trdan Lušin et al. (2012)
  Hepatic glucuronidation vmax ±SD: 510 ± 18 nmol/h/mg microsomal protein
[5]; basic PBPK model, ref Kortejärvi et al. (2007)
  Oral uptake from small intestine to liver: 2.10^a 1/h/kg BW^−0.25
[5]; [13]
  EHR as glucuronide: 0.20^f 1/h/kg BW^−0.25
  EHR unconjugated: 0.20^f 1/h/kg BW^−0.25
  Fraction of glucuronide in liver taken up directly into serum (no EHR): 0.9^f
  Urinary excretion glucuronide: 0.35^f 1/h/kg BW^0.75
[5]; unconjugated, basic PBPK model, ref Yang et al. (2015)
  Urinary excretion: 0.060^f 1/h/kg BW^0.75
[5]; used in BPA PBPK model, ref Yang et al. (2015)
  EHR share: 10%
[6]
  fu (unbound fraction): 0.06
[7]
  EC50: 0.1 nM
[8]
  AUC, mean (range), measured: 15.5 (0.986–23.2) nM*h for 1.5 h
  Cmax: 16.5 nM
[9]; mean, ref Bayer 1996, Korenman 1973
  logPow: 3.36
[9]; ref Bautista-Toledo et al. 2005
  pKa: 10.4 and ~10.4
Liver [10]; read-out: Hepatic sulfation Km
  Km: 10.1 µM
Liver [10]
  Hepatic sulfation vmax: 149^n nmol/h/g liver
[11]; [14]
  MOE in gonads: 4,670
  MOE in serum: 12,000
[11]; EC50 of Walsh et al. (2005), Cmax P95/P95
  MOE in serum of females: 1.25
[11]; EC50 of Walsh et al. (2005), worst-case accumulation in the fetus
  MOE in fetal serum: 0.179
Small intestine; read-out: Glucuronidation in enterocytes / intestinal glucuronidation Km, used in basic model, ref Trdan Lušin et al. (2012)
  Km: 58.4 µM
Small intestine; read-out: Glucuronidation in enterocytes Km range, ref Trdan Lušin et al. (2012), Mazur et al. (2010)
  Km: 58.4 to 80.1 µM
Small intestine; read-out: Intestinal glucuronidation Km ±SD, ref Mazur et al. (2010)
  Km: 80.1 µM
Small intestine; ref Mazur et al. (2010)
  Intestinal glucuronidation vmax ±SD: 29.2 ± 7.2 nmol/h/mg microsomal protein
Small intestine; ref Trdan Lušin et al. (2012), Mazur et al. (2010)
  Glucuronidation in enterocytes vmax range: 125–361^j nmol/h/g liver
Small intestine; ref Trdan Lušin et al. (2012)
  Glucuronidation in enterocytes vmax - used in basic model: 361^i nmol/h/g bw
  Intestinal glucuronidation vmax ±SD: 84.0 ± 6.0 nmol/h/mg microsomal protein
[12]
  fetal plasma concentration, times higher than corresponding maternal plasma: up to 7 times
